Laboratory results published in the NIST ThermoML archive (doi:10.1021/je800672r).
Numbers after ± are expanded uncertainties.

Assay: wn = mass fraction of the nth substance listed
Conditions: Liquid

NCC(=O)[O-].[Na+] [sodium glycinate] + O
mass density [kg/m3]
Conditions	298.15 K	313.15 K	323.15 K	333.15 K	343.15 K	353.15 K
w1 = 0.01	1011.96 ± 2.3	1002 ± 2	–	996.72 ± 2.1	990.16 ± 2.2	985.36 ± 2.4
w1 = 0.05	1015.92 ± 2.4	1010.56 ± 2.2	1005.12 ± 2.1	1000.12 ± 2	993.24 ± 2.2	987.2 ± 2.3
w1 = 0.1	1034.52 ± 2.9	1029.68 ± 2.7	1022.56 ± 2.5	1017.56 ± 2.4	1010.76 ± 2.3	1005.32 ± 2.1
w1 = 0.15	1055.6 ± 3.4	1048.32 ± 3.2	1042.92 ± 3.1	1036.72 ± 2.9	1030.08 ± 2.8	1023.64 ± 2.6
w1 = 0.2	1083.52 ± 4.1	1076.44 ± 3.9	1071 ± 3.8	1066.48 ± 3.6	1061.2 ± 3.5	1054.48 ± 3.4
w1 = 0.3	1130.4 ± 5.2	1118 ± 4.9	1112.76 ± 4.8	1107.48 ± 4.7	1101.44 ± 4.5	1094.52 ± 4.4
